Measured values reported in paper PMC4397963, “Phospho-Tyrosine(s) vs. Phosphatidylinositol Binding in Shc Mediated Integrin Signaling” (American journal of molecular biology, 2015).
“Also recorded” adds a separate entry of the source. Where no end group is shown, it is not given here. [ ]: non-standard residue; d: D form. pY = N[C@@H](Cc1ccc(OP(=O)(O)O)cc1)C(=O)O

T1: Shc PTB domain (17 – 207) (Homo sapiens, UniProt P29353)
T1 construct: The Shc PTB domain (17 – 207) containing the pET15b vector was transformed into a Rosetta (DE3) cell line; His-tag (N); made in house; host or cells: E. coli Rosetta (DE3), pET15b
T1 sequence (P29353 17-207 isoform P29353-2): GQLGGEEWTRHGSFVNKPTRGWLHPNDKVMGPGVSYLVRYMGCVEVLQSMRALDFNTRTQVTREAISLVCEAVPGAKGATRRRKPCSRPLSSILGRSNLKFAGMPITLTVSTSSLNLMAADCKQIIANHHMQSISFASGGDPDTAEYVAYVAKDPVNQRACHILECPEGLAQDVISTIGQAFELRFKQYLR

T2: Shc PTB domain (17 – 207) (UniProt P29353-2 17-207)
T2 construct: Shc adaptor protein (p52 isoform), PTB domain, residues 17-207, from a pET15b vector; numbers count on: the p52 isoform (full length 1-473); 15N-labelled (M9 medium with 15NH4Cl) for the NMR experiments; Monomeric on Superdex-75; also called apo PTB domain; source: E. coli Rosetta (DE3), purified (Ni-NTA, Superdex-75)
T2 sequence (looked up): T1 sequence (P29353 17-207 isoform P29353-2)

T3: full length Shc (1 – 473) (UniProt P29353-2 1-473)
T3 construct: Shc adaptor protein, full length 1-473 (printed length 473 residues, the p52 isoform), from a pET28a vector provided by Dr. Ladbury; numbers count on: the p52 isoform; Monomeric on Superdex-75; also called Shc full length; p52 Shc; source: E. coli BL21 (DE3), purified (Ni-NTA, Superdex-75)
T3 sequence (looked up): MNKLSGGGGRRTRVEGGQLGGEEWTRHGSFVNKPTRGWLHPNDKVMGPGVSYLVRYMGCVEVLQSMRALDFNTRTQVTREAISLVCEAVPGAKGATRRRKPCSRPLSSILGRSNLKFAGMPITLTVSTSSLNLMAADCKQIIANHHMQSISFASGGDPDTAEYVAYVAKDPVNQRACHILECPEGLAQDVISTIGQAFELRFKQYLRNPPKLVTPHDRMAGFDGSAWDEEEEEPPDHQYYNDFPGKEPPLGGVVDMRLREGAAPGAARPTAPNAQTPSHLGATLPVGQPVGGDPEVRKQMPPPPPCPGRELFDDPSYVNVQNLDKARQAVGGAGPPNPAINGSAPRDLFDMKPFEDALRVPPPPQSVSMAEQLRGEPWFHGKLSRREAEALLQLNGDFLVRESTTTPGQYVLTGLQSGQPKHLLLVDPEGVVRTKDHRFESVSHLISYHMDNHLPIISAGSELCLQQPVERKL

B1: bi-β3: β3 integrin derived bi-phosphorylated (Y747 and Y759) peptide (peptide)
peptide: RAKWDTANNPL[pY]KEATSTFTNIT[pY]RGT
notes: integrin β3 cytoplasmic tail, residues 736-762, both tyrosines phosphorylated; also called bi-phosphorylated β3 cytoplasmic tail peptide; source: synthetic peptide (NEO-Peptide)

Assays:
[1] = biological target: T1, Shc PTB domain (17 – 207); assay: ITC binding to Shc PTB domain; details: for thermodynamic character of binding (heat sign, driving force) / Kd / ΔG / ΔH / −TΔS: ITC, 25°C; for Kd / ΔG / ΔH / −TΔS: PtdIns binding to PTB domain; for Kd: 50 mM Tris pH 7.5, 100 mM NaCl, 5 mM β-mercaptoethanol, "independent" model, dihexanoyl- or dioctonoyl- PtdIns, read-out: Kd; for ΔG / ΔH / −TΔS: pH 7.5
Procedure: The Shc PTB domain (17 – 207) containing the pET15b vector was transformed into a Rosetta (DE3) cell line to pursue optimal expression levels. SH2 domain (380 – 473) was cloned into NdeI and XhoI sites in pET21b vector and then transformed into a BL21 (DE3) cell line. The vector of pET28a-full length Shc (1 – 473), generously provided by Dr. Ladbury (University of Texas MD Anderson Cancer Center, TX), was expressed in a BL21 (DE3) cell line as well. Typically, 10 ml overnight culture was used to inoculate 1 liter LB broth. Cells were grown at 37°C until OD600 reached 0.6. At this point the culture was cooled to room temperature and then the overnight overexpression was induced by 1 mM isopropyl-β-D-thiogalactopyranoside. Harvested cells were kept at −20°C for future purification or resuspended in lysis buffer supplemented with protease inhibitors. Cells were further lysed by french press and the cell debris was removed by centrifugation at 18,000 rpm at 4°C. […] The overexpression of the target protein and the purified protein were confirmed by SDS-PAGE and the bands of the expected mass were observed. The determination of protein concentration by UV measurement was consistent with Bradford assay.
Calorimetric measurements of a full length Shc, PTB domain, and SH2 domain to β3 phosphopeptides or PtdIns were performed on a low volume Nano ITC (TA Instruments). All experiments were carried out in a buffer of 50 mM Tris, pH 7.5, 100 mM NaCl, 5 mM β-mercaptoethanol (unless described otherwise) at 12°C or 25°C with a stirring speed of 250 rpm to minimize the precipitation of the protein. 300 second time intervals were set between injections. The concentration of protein samples was determined by UV measurements. The titrants (β3 phosphopeptides or PtdIns) were prepared in the same buffer by the dilution of higher concentration stocks. The concentrations of the protein ranged from 30 μM to 150 μM. The concentration of protein was examined after each ITC experiment by UV to ensure the stability of proteins under the test condition. The analysis of the data was done with Nano Analyze Software (TA Instruments) suite using an “independent” model.

apo Shc PTB domain = assay: 15N-HSQC NMR titration of apo Shc PTB domain; type: binding; details: 15N-labelled apo PTB 100 – 200 μM, 50 mM Tris pH 7.5, 100 mM NaCl, 35°C; lipid to protein up to 15 to 1 (Ins(1,4,5)P3), 5 to 1 (PtdIns(4,5)P2)
Procedure: ^15N-labelled recombinant proteins were overexpressed in M9 medium supplemented with ^15NH4Cl as the sole nitrogen source. The same purification procedures as described above were followed. NMR samples of 100 – 200 μM were prepared in a buffer of 50 mM Tris, pH 7.5, 100 mM NaCl, 5 mM β-mercaptoethanol, 7% D2O, 1 mM 4,4-dimethyl-4-silapentane-1-sulfonic acid as the internal standard. ^15N-HSQC titration experiments were performed on a Varian/Agilent Inova 600 MHz spectrometer equipped with inverse-triple resonance cryo-probe at 35°C. All spectra were processed with NMRPipe and analyzed in CCPNmr Analysis software suite.
To find out the molecular details of these weak Shc-PtdIns interactions, we next employed NMR and performed ^15N-HSQC chemical shifts mapping experiments which are especially useful to define weak binding. […] Chemical shift perturbations, associated with the probes binding, were monitored. Overall, the observed shifts in Shc PTB resonance frequencies were small. However, they were concentration dependent, reproducible, and similar among the two PtdIns tested. […] The close-ups of 15N-HSQC spectra of PTB in the presence of PtdIns(4,5)P2, exemplifying the most shifted resonances, are shown in Figure 2. […] The first one, represented by the residues Q^148, S^149 and A^168, overlaps with the classical phosphotyrosine binding pocket of the protein-peptide binary complex. However, the canonical PTB fold cannot be formed without the stabilizing hydrophobic residue (pY-5) of the target peptide. Thus, in apo PTB domain Ins(1,4,5)P3 could only establish intermediate dynamic contacts with the amine functional groups of R^67 or Q^148 side chains. The second binding site, including the residues L^63, Q^76 and S^107, is formed at the interface of the second helix, the loop connecting the first beta strand with the second helix and the beginning of the second beta strand. This second PtdIns binding site is distinct from the second novel phosphotyrosine binding site we previously described for Shc PTB-bi-β3 complex, although it includes several overlapping residues. […]

apo PTB domain of Shc = details: unilamellar liposomes centrifugation assay; ref [15]; read-out: binding affinity, apo PTB domain; cited from earlier work
[2] = biological target: PTB domain complexed with TrkA peptide; details: roughly estimated; ref [15]; cited from earlier work
Shc PTB domain = details: ref [15]; cited from earlier work
Source text: Since their discovery about two decades ago, PTB domains have been identified and structurally characterized within numerous multi-domain proteins. The ways they interact with their targets are strikingly versatile. The phosphorylated tyrosine is not always required for the high affinity interactions, and, in some cases, the binding motif might not even contain the tyrosine residue at all. PTB domains in general are also famous for the significant variance in their ligand binding affinities, ranging from 0.1 to 100 μM [17].

[3] = biological target: TrkA phosphopeptide (Homo sapiens) (UniProt P04629); assay: SPR; details: cited from earlier work
Chain of TrkA phosphopeptide (Homo sapiens) (P04629 33-796): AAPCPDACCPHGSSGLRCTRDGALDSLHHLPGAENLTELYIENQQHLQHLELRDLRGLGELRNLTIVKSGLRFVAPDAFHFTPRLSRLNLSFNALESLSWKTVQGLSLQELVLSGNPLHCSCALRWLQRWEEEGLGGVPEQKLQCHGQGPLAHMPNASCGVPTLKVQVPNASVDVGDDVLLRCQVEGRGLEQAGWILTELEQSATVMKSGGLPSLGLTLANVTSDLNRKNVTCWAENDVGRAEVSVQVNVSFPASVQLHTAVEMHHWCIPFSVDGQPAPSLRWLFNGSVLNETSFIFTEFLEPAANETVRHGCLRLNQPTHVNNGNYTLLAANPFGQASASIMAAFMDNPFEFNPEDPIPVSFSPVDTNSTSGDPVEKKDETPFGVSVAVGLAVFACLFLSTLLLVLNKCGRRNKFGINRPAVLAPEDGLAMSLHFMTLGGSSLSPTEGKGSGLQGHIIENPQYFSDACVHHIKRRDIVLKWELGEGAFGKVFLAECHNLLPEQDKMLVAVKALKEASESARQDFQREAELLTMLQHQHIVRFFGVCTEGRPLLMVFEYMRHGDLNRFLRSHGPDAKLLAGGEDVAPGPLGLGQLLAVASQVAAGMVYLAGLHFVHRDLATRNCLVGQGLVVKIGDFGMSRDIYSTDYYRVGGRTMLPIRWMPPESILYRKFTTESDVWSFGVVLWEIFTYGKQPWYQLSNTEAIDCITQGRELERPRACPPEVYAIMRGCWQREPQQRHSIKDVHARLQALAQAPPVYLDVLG

[4] = biological target: TrkA phosphopeptide (Homo sapiens) (UniProt P04629); assay: ITC; details: cited from earlier work
[5] = biological target: T2, Shc PTB domain (17 – 207); assay: ITC; Nano ITC; β3 phosphopeptide titrated into the Shc protein over-saturated by Ins(1,4,5)P3 at 3 to 1 lipid to protein ratio; 12°C; details: both partners purified
[6] = biological target: T3, full length Shc (1 – 473); assay: as above; details: both partners purified
[7] = biological target: T2, Shc PTB domain (17 – 207); assay: ITC; Nano ITC; β3 phosphopeptide titrated into the Shc protein (30-150 μM); 12°C; 50 mM Tris, pH 7.5, 100 mM NaCl, 5 mM β-mercaptoethanol; independent model; details: both partners purified
[8] = biological target: T2, Shc PTB domain (17 – 207); assay: ITC; Nano ITC; β3 phosphopeptide titrated into the Shc protein (30-150 μM); 25°C; 50 mM Tris, pH 7.5, 100 mM NaCl, 5 mM β-mercaptoethanol; independent model; details: both partners purified
[9] = biological target: T3, full length Shc (1 – 473); assay: as above; details: both partners purified
[10] = biological target: T2, Shc PTB domain (17 – 207); assay: ITC; Nano ITC; β3 phosphopeptide titrated into the Shc protein (30-150 μM); 12°C; 50 mM Tris, pH 7.5, 100 mM NaCl, 5 mM β-mercaptoethanol; independent model; details: both partners purified; remark: listed apart in the source
[11] = biological target: T3, full length Shc (1 – 473); assay: as above; details: both partners purified
[12] = biological target: T2, Shc PTB domain (17 – 207); assay: ITC; Nano ITC; β3 phosphopeptide titrated into the Shc protein (30-150 μM); 25°C; 50 mM Tris, pH 7.5, 100 mM NaCl, 5 mM β-mercaptoethanol; independent model; details: both partners purified; remark: listed apart in the source
[13] = biological target: T3, full length Shc (1 – 473); assay: as above; details: both partners purified; remark: listed apart in the source

| Molecule | thermodynamic character of binding (heat sign, driving force) ([1]; PTB domain) | Kd [1] [µM] | ΔG [1] [kcal/mol] | ΔH [1] [kcal/mol] | −TΔS [1] [kcal/mol] | 15N-HSQC chemical shift perturbations (apo Shc PTB domain) | Kd (apo PTB domain of Shc) [µM] | Kd [2] [µM] | lipid specificity (Shc PTB domain) | other results |
| --- | --- | --- | --- | --- | --- | --- | --- | --- | --- | --- |
| CCCCCCCCCCCCCCCC(=O)OC[C@H](COP(=O)(O)O[C@H]1[C@H](O)[C@@H](O)[C@H](OP(=O)(O)O)[C@@H](OP(=O)(O)O)[C@H]1O)OC(=O)CCCCCCCCCCCCCCC [PtdIns(4,5)P2, Phosphatidylinositol-4,5-diphosphate] | endothermic interactions at 25 °C that are driven predominantly by entropy | 125 | -5.323 | 0.464 | -5.786 | small; also recorded: more pronounced; also recorded: three major binding regions | 140 | ~450 | higher specificities | – |
| Phosphatidylinositol-4-phosphate [PtdIns(4)P1] | endothermic interactions at 25 °C that are driven predominantly by entropy | 95 | -5.485 | 0.361 | -5.846 | small | 52 | ~450 | higher specificities | binding affinity relative to that reported before ([1]; PTB domain, ITC 25°C vs. centrifugation assay of ref 15): about two times weaker |
| Shc PTB (from UniProt P29353) | – | – | – | – | – | – | – | – | – | Kd [3]: 0.053 µM; Kd [4]: 0.19 µM |
| B1 | – | – | – | – | – | – | – | – | – | Kd [5]: 3.65 µM; dH [5]: -2.96 kcal/mol; Kd [6]: 4.38 µM; dH [6]: -3.32 kcal/mol; stoichiometry N [7]: 1 ± 0.15; stoichiometry N [8]: ~1; stoichiometry N [9]: 1 ± 0.15; Kd [10]: 4.32 µM; dH [10]: -2.75 kcal/mol; Kd [11]: 5.21 µM; dH [11]: -3.89 kcal/mol; Kd [12]: 5.14 µM; dH [12]: -5.49 kcal/mol; Kd [13]: 2.84 µM; dH [13]: -6.89 kcal/mol |
